Among the data in PubChem BioAssay AID330 (DTP/NCI, 2004) are T/C values, retold here.

The subject of this assay is P388 leukemia ip, CD2F1 mice, survival T/C. Put plainly: NCI In Vivo Anticancer Drug Screen. Data for tumor model P388 Leukemia (intraperitoneal) in CD2F1 (CDF1) mice. The conditions noted are these: endpoint: median survival time, higher = longer survival. The essentials:
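Mice carrying the transplanted tumor received test compound or vehicle. Survival was recorded in each group, and the value is the treated-group measurement divided by that of the vehicle-treated control group.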

[1] abbreviates: dose: 50.0 mg/kg/injection, schedule: Q01DX009 (ip), vehicle: saline with Tween-80.
Setting [2] is: dose: 100.0 mg/kg/injection, schedule: Q01DX009 (ip), vehicle: saline with Tween-80.
Setting [3] is: dose: 200.0 mg/kg/injection, schedule: Q01DX009 (ip), vehicle: saline with Tween-80.
The mark [4] stands for this setting: dose: 50.0 mg/kg/injection, schedule: Q01DX005 (ip), vehicle: Klucel (hydroxypropylcellulose) (HPC).
Setting [5] is: dose: 50.0 mg/kg/injection, schedule: Q01DX005 (ip), vehicle: saline with Tween-80.
Setting [6] is: dose: 100.0 mg/kg/injection, schedule: Q01DX005 (ip), vehicle: saline with Tween-80.
[7] abbreviates: dose: 200.0 mg/kg/injection, schedule: Q01DX005 (ip), vehicle: saline with Tween-80.
[8] abbreviates: dose: 60.0 mg/kg/injection, schedule: Q01DX005 (ip), vehicle: saline with Tween-80.

Values joined by “and” are separate entries in the source; they are usually repeats but may differ in a detail not shown here. Equal values may be shown once. Inconclusive results and toxic doses are left out. Numbered stars: 1 amine (or outer) side, 2 acyl side, 3 side chain; on linkers, the order of the positions; unused ones are H or OH. Bridge positions count the residues as written; N and C are the ends. Square brackets hold non-standard residues; d marks the D form. Peptide text beside a SMILES is read from it. I, II: the chains in the order shown. * marks the point of attachment. Actinocin(9to1) = Cc1c2oc3c(C)ccc(C(=O)[*:1])c3nc-2c(C(=O)[*:2])c(N)c1=O; NMeV = CN[CH](C(=O)O)C(C)C; Cbz = O=C(OCc1ccccc1)*; Sar = CNCC(=O)O

With `C[C@@H](N)C(=O)NC(CO)CC(N)C=O` (stereo not given in full), the T/C was 105 % of control and 115 % of control (dose: 50.0 mg/kg/injection, schedule: Q04DX002 (ip), vehicle: saline); 111 % of control and 120 % of control (dose: 100.0 mg/kg/injection, schedule: Q04DX002 (ip), vehicle: saline); 109 % of control and 121 % of control (dose: 200.0 mg/kg/injection, schedule: Q04DX002 (ip), vehicle: saline); 122 % of control (dose: 400.0 mg/kg/injection, schedule: Q04DX002 (ip), vehicle: saline).

As for `O=c1c2c([nH]c3c1ccc1c(=O)c4c([nH]c13)CCCC4)CCCC2`, the T/C under setting [1] was 98 % of control, the T/C under setting [2] is 96 % of control and the T/C under setting [3] was 94 % of control.

Take `O=CC(C(=O)c1ccccc1[N+](=O)[O-])c1ccccc1` (stereo not given): the T/C was 89 % of control under setting [4]; 104 % of control (dose: 100.0 mg/kg/injection, schedule: Q01DX005 (ip), vehicle: Klucel (hydroxypropylcellulose) (HPC)); 98 % of control (dose: 200.0 mg/kg/injection, schedule: Q01DX005 (ip), vehicle: Klucel (hydroxypropylcellulose) (HPC)).

For the compound `C[n+]1c(SCC(=O)O)sc2ccccc21`, the T/C was 99 % of control (dose: 12.5 mg/kg/injection, schedule: Q01DX009 (ip), vehicle: saline); 104 % of control (dose: 25.0 mg/kg/injection, schedule: Q01DX009 (ip), vehicle: saline); 108 % of control and 122 % of control (dose: 50.0 mg/kg/injection, schedule: Q01DX009 (ip), vehicle: saline).

In the case of `CCOC(=O)C(C#N)(CCC(=NC(C)(C)C)Nc1c(Cl)cccc1Cl)CCC(=NC(C)(C)C)Nc1c(Cl)cccc1Cl` (stereo not given), the T/C by setting is: under setting [1], 105 % of control; under setting [2], 101 % of control; under setting [3], 92 % of control.

Take `CC/C(=N\NC(N)=NC)c1ccc(Cl)cc1`: the T/C (dose: 25.0 mg/kg/injection, schedule: Q04DX002 (ip), vehicle: saline) was 101 % of control.

In the case of `COc1cccc(C2(O)CCCc3c(C)ccnc32)c1` (stereo not given), the T/C was 103 % of control (dose: 60.0 mg/kg/injection, schedule: Q01DX005 (ip), vehicle: Klucel (hydroxypropylcellulose) (HPC)); 112 % of control (dose: 120.0 mg/kg/injection, schedule: Q01DX005 (ip), vehicle: Klucel (hydroxypropylcellulose) (HPC)); 115 % of control (dose: 240.0 mg/kg/injection, schedule: Q01DX005 (ip), vehicle: Klucel (hydroxypropylcellulose) (HPC)).

On to `CC1CCC(C(C)(C)c2ccccc2)CC1OC(=O)/C=C/CC(C)(C)CC=C1C2CCC1N(C(=O)OCC(Cl)(Cl)Cl)N2C(=O)OCC(Cl)(Cl)Cl` (stereo not given), for which the T/C by setting is: (dose: 25.0 mg/kg/injection, schedule: Q01DX005 (ip), vehicle: Klucel (hydroxypropylcellulose) (HPC)) 89 % of control; under setting [4], 89 % of control.

In the case of `C=CCc1ccccc1NC(C)C(=O)OCC` (stereo not given), the T/C is 107 % of control under setting [5], 107 % of control under setting [6] and 107 % of control under setting [7].

For `Cc1c2oc3c(C)ccc(C(=O)NC4C(=O)NC(C(C)C)C(=O)N5CCCC5C(=O)N(C)CC(=O)N(C)C(C(C)C)C(=O)OC4C)c3nc-2c(C(=O)NC2C(=O)NC(C(C)C)C(=O)N3CCCC3C(=O)N(C)CC(=O)N(C)C(C(C)C)C(=O)OC2C)c(N)c1=O` (stereo not given) (I: TVP[Sar][NMeV] / II: TVP[Sar][NMeV]; ester I:1-I:C, II:1-II:C; linker I:N-II:N via Actinocin(9to1); configuration not given here), the T/C is 178 % of control (dose: 0.1 mg/kg/injection, schedule: Q01DX009 (ip), vehicle: distilled water + Tween-80); 190 % of control (dose: 0.2 mg/kg/injection, schedule: Q01DX009 (ip), vehicle: distilled water + Tween-80); 151 % of control (dose: 0.2 mg/kg/injection, schedule: Q01DX009 (ip), vehicle: water); 207 % of control (dose: 0.4 mg/kg/injection, schedule: Q01DX009 (ip), vehicle: distilled water + Tween-80); 174 % of control (dose: 0.4 mg/kg/injection, schedule: Q01DX009 (ip), vehicle: water).

Consider `OC(COc1c2ccccc2nc2ccccc12)COc1c2ccccc2nc2ccccc12`, for which the T/C is, setting by setting: under setting [8], 104 % of control; (dose: 120.0 mg/kg/injection, schedule: Q01DX005 (ip), vehicle: saline with Tween-80) 101 % of control; (dose: 240.0 mg/kg/injection, schedule: Q01DX005 (ip), vehicle: saline with Tween-80) 101 % of control.

On to `CCOC(=O)c1cc(OCC)c(OCC)c(OCC)c1N`, for which the T/C under setting [1] is 100 % of control, the T/C under setting [2] is 100 % of control and the T/C under setting [3] is 111 % of control.

Regarding `O=C1Cc2cc3c(cc2C=C2CCCN12)OCO3`, the T/C is 100 % of control (dose: 6.25 mg/kg/injection, schedule: Q01DX009 (ip), vehicle: water); 100 % of control (dose: 12.5 mg/kg/injection, schedule: Q01DX009 (ip), vehicle: water); 103 % of control (dose: 25.0 mg/kg/injection, schedule: Q01DX009 (ip), vehicle: water); 106 % of control (dose: 50.0 mg/kg/injection, schedule: Q01DX009 (ip), vehicle: water); 100 % of control (dose: 100.0 mg/kg/injection, schedule: Q01DX009 (ip), vehicle: water).

Regarding `CC(=O)OC(C)/C=C\C#N` (stereo not given), the T/C reads like this: (dose: 15.0 mg/kg/injection, schedule: Q01DX005 (ip), vehicle: saline) 98 % of control and 104 % of control and 86 % of control; (dose: 30.0 mg/kg/injection, schedule: Q01DX005 (ip), vehicle: saline) 98 % of control and 100 % of control and 96 % of control.

For the compound `O=C1/C(=C\c2ccccc2)SC(=S)N1c1cccc(Br)c1`, the T/C was 87 % of control (dose: 25.0 mg/kg/injection, schedule: Q01DX005 (ip), vehicle: saline with Tween-80); 97 % of control under setting [5]; 106 % of control under setting [6].

Turning to `O=c1[nH][nH]c2c([N+](=O)[O-])ccc(F)c12`, the T/C was 100 % of control (dose: 12.5 mg/kg/injection, schedule: Q01DX009 (ip), vehicle: Klucel (hydroxypropylcellulose) (HPC)); 101 % of control (dose: 25.0 mg/kg/injection, schedule: Q01DX009 (ip), vehicle: Klucel (hydroxypropylcellulose) (HPC)); 110 % of control (dose: 50.0 mg/kg/injection, schedule: Q01DX009 (ip), vehicle: Klucel (hydroxypropylcellulose) (HPC)).

Consider `O=C(N1C2c3ccsc3[C@@H](O)C21)C(F)(F)F` (stereo not given in full), for which the T/C under setting [5] was 88 % of control, the T/C under setting [6] was 95 % of control and the T/C under setting [7] was 100 % of control.

As to `CC(=O)O.Cl.NC1C([O-])OC(CO)C(O)C1O.O=C1OC(C(O)CO)C([O-])=C1[OH2+].[Cu+2]` (stereo not given), the T/C was 107 % of control (dose: 3.75 mg/kg/injection, schedule: Q01DX005 (ip), vehicle: saline with Tween-80); 100 % of control (dose: 7.5 mg/kg/injection, schedule: Q01DX005 (ip), vehicle: saline with Tween-80); 98 % of control and 97 % of control (dose: 15.0 mg/kg/injection, schedule: Q01DX005 (ip), vehicle: saline with Tween-80); 108 % of control under setting [8].

On to `CC(C)(CNCc1ccccc1)COS(=O)(=O)O`, for which the T/C is, setting by setting: (dose: 100.0 mg/kg/injection, schedule: Q01DX001 (ip), vehicle: saline) 110 % of control; (dose: 200.0 mg/kg/injection, schedule: Q01DX001 (ip), vehicle: saline) 105 % of control; (dose: 400.0 mg/kg/injection, schedule: Q01DX001 (ip), vehicle: saline) 100 % of control.

Regarding `CC[N+]1=C(C2=NCCc3ccccc32)c2ccccc2CC1`, the T/C was 104 % of control (dose: 12.5 mg/kg/injection, schedule: Q01DX005 (ip), vehicle: saline); 98 % of control (dose: 25.0 mg/kg/injection, schedule: Q01DX005 (ip), vehicle: saline); 92 % of control under setting [5]; 100 % of control (dose: 50.0 mg/kg/injection, schedule: Q01DX005 (ip), vehicle: saline).

Consider `ClCc1ccc(Cl)c(Cl)c1Cl`, for which the T/C runs as follows: (dose: 25.0 mg/kg/injection, schedule: Q01DX009 (ip), vehicle: saline with Tween-80) 100 % of control; (dose: 25.0 mg/kg/injection, schedule: Q04DX003 (ip), vehicle: saline with Tween-80) 100 % of control; under setting [1], 104 % of control; (dose: 50.0 mg/kg/injection, schedule: Q04DX003 (ip), vehicle: saline with Tween-80) 100 % of control; under setting [2], 109 % of control; (dose: 100.0 mg/kg/injection, schedule: Q04DX003 (ip), vehicle: saline with Tween-80) 100 % of control.

On to `CC(C)CC(NC(=O)C(Cc1ccccc1)NC(=O)OCc1ccccc1)C(=O)NC(C)C(=O)O` (stereo not drawn) (Cbz-Phe-Leu-Ala-OH; configuration not given here), for which the T/C is 95 % of control under setting [5], 97 % of control under setting [6] and 104 % of control under setting [7].

In the case of `COc1cc(CN2CCCCC2)cc2cc(C(=O)O)c(=O)oc12`, the T/C was 103 % of control under setting [5], 101 % of control under setting [6] and 100 % of control under setting [7].
